50 molecules from BindingDB's records for doi:10.7270/Q2MP51PC (Pcmd, 2008) can be followed below.

Structures are written as SMILES.

The experiment concerns the target T1, Complement C1s subcomponent (Homo sapiens, UniProt P09871).
T1 sequence (P09871 whole entry): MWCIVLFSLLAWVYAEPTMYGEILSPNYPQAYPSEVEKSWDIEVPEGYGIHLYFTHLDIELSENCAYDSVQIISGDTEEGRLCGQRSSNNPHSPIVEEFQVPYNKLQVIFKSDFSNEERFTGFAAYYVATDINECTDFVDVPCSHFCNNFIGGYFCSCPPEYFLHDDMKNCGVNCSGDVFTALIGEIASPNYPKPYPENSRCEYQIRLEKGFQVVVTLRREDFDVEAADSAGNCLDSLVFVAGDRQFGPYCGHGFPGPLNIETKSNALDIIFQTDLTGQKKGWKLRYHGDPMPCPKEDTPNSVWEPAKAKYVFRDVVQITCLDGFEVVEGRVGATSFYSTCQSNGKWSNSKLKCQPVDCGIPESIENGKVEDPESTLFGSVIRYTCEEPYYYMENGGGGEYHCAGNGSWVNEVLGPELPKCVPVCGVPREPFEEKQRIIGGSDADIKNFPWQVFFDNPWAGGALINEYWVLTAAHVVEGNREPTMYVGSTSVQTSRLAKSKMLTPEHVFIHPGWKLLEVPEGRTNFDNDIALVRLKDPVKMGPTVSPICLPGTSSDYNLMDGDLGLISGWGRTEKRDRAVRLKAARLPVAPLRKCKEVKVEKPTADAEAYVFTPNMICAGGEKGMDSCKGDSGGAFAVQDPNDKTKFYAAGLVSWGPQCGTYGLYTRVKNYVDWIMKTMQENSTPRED
The experiment is described as follows: C1s inhibitor IC50 values, dose response, biochemical (AID 787).
One may read the IC50 as the concentration that gives 50% inhibition. As for `COc1ccc(C(=O)n2nnc3ccccc32)cc1Br` [1-benzotriazolyl-(3-bromo-4-methoxyphenyl)methanone], it took 5.59 µM to reach half-maximal inhibition (IC50). This lies in the single-digit micromolar range.

Regarding `CC(=O)NC(=O)NC1CSCC1OC(C)=O` (stereo not given) [4-{[(acetylamino)carbonyl]amino}tetrahydro-3-thienyl acetate], the IC50 is greater than 50 µM.

Molecule `CC(C)NC(=O)c1cc(-c2ccc(Br)cc2)on1` [5-(4-bromophenyl)-N-isopropyl-isoxazole-3-carboxamide] yielded a 50% inhibitory concentration (IC50) greater than 50 µM.

In the case of `O=C(Oc1ccc(-n2cnnn2)cc1)c1ccco1` [2-furancarboxylic acid [4-(1-tetrazolyl)phenyl] ester], the half-maximal inhibitory concentration (IC50) was greater than 50 µM.

On to `CCOC(=O)N1CCC2=C(C#N)C(=N)C(C#N)(C#N)[C@H](c3ccccc3OCC)[C@H]2C1` [(8R,8aR)-6-amino-5,7,7-tricyano-8-(2-ethoxyphenyl)-1,3,8,8a-tetrahydroisoquinoline-2-carboxylic acid ethyl ester], for which the half-maximal inhibitory concentration (IC50) was greater than 50 µM.

In the case of `Cc1cc(NC(=O)c2cccc(S(=O)(=O)N3CCCCCC3)c2)n(-c2ccccn2)n1` [3-(1-azepanylsulfonyl)-N-[5-methyl-2-(2-pyridinyl)-3-pyrazolyl]benzamide], the IC50 was greater than 50 µM.

With `CSc1nc(-c2ccco2)nn1C(=O)c1ccco1` [2-furanyl-[3-(2-furanyl)-5-(methylthio)-1,2,4-triazol-1-yl]methanone], half-maximal inhibition (IC50) was put at 4.88 µM. In other words, the single-digit micromolar range.

Molecule `Cc1ccc(CCNC(=O)C2CCC(=O)N2Cc2cccnc2)cc1` (stereo not given) [5-keto-N-[2-(p-tolyl)ethyl]-1-(3-pyridylmethyl)pyrrolidine-2-carboxamide] showed a concentration for half-maximal inhibition (IC50) greater than 50 µM.

For `CC(C)CN(CC(C)C)S(=O)(=O)N1CCC(C(=O)NCc2ccc(F)cc2)CC1` [1-(diisobutylsulfamoyl)-N-(4-fluorobenzyl)isonipecotamide], the IC50 is greater than 50 µM.

Molecule `CCCCN1C(=O)/C(=C2\SC(N3CCCCC3)=NC2=O)c2ccccc21` [MLS000111979] returned a half-maximal inhibitory concentration (IC50) greater than 50 µM.

With `O=C(Nc1nc(-c2cccs2)cs1)c1cccc(S(=O)(=O)N2CCCCC2)c1` [3-(1-piperidinylsulfonyl)-N-(4-thiophen-2-yl-2-thiazolyl)benzamide], the IC50 is greater than 50 µM.

In turn, `COc1cccc(C2=Nc3nnnn3C(c3cccc(OC)c3OC)C2)c1` (stereo not given) returned an IC50 greater than 50 µM.

`CC(=O)c1cn(CC(=O)NCc2ccc3c(c2)OCO3)c2ccccc12` [2-(3-acetyl-1-indolyl)-N-(1,3-benzodioxol-5-ylmethyl)acetamide] yielded an IC50 greater than 50 µM.

Take `O=C(O)CCCC(=O)Nc1ccccc1C(=O)O` [2-(4-carboxybutanoylamino)benzoic acid]: the half-maximal inhibitory concentration (IC50) was greater than 50 µM.

Turning to `O=C(NCc1cccs1)c1cccc(S(=O)(=O)N2CCCCC2)c1` [3-(1-piperidinylsulfonyl)-N-(thiophen-2-ylmethyl)benzamide], the IC50 was greater than 50 µM.

Regarding `O=C1CS/C(=N\c2ccc(O)cc2)N1c1ccc(O)cc1` [MLS000027731], the IC50 was greater than 50 µM.

Molecule `CC(=O)N1CCN(C(=O)c2cccc(S(=O)(=O)Nc3ccc(C)cc3)c2)CC1` [3-(4-acetylpiperazine-1-carbonyl)-N-(4-methylphenyl)benzenesulfonamide] displayed a concentration for half-maximal inhibition (IC50) greater than 50 µM.

`CCCCn1c(-c2cc(Cl)ccc2OC)n[nH]c1=S` [4-butyl-3-(5-chloro-2-methoxyphenyl)-1H-1,2,4-triazole-5-thione] gave a concentration for half-maximal inhibition (IC50) greater than 50 µM.

Take `O=C(COC(=O)c1cnccn1)c1ccc(OC(=O)c2ccccc2)cc1` [2-pyrazinecarboxylic acid [2-(4-benzoyloxyphenyl)-2-oxoethyl] ester]: the IC50 is greater than 50 µM.

The molecule `Cc1ccc(-c2cc(C(=O)NCc3ccccn3)no2)cc1` [5-(4-methylphenyl)-N-(2-pyridinylmethyl)-3-isoxazolecarboxamide] displayed a half-maximal inhibitory concentration (IC50) greater than 50 µM.

Molecule `CCOC(=O)N1CCN(C(=O)CN(c2cccc(C)c2)S(=O)(=O)c2ccc(C)cc2)CC1` [4-[2-(3-methyl-N-(4-methylphenyl)sulfonylanilino)-1-oxoethyl]-1-piperazinecarboxylic acid ethyl ester] returned an IC50 greater than 50 µM.

For the molecule `COc1ccc(CC(=O)Nc2cccc(-c3nnc(-c4cccc(C)c4)o3)c2)cc1OC` [2-(3,4-dimethoxyphenyl)-N-[3-[5-(3-methylphenyl)-1,3,4-oxadiazol-2-yl]phenyl]acetamide], the IC50 is greater than 50 µM.

Regarding `O=C(Nc1nccs1)c1ccc(Cl)c(S(=O)(=O)N2CCCCC2)c1` [4-chloranyl-3-piperidin-1-ylsulfonyl-N-(1,3-thiazol-2-yl)benzamide], the IC50 was greater than 50 µM.

`CCOC(=O)c1ccc(CSc2nncn2N)o1` [5-[[(4-amino-1,2,4-triazol-3-yl)thio]methyl]-2-furancarboxylic acid ethyl ester] came in with an IC50 greater than 50 µM.

`COc1ccc(NC(=O)c2cccs2)cc1OC` [MLS000058874] showed an IC50 greater than 50 µM.

`CCOC(=O)C1CCN(C(=O)CSc2ccccc2)CC1` [1-[1-oxo-2-(phenylthio)ethyl]-4-piperidinecarboxylic acid ethyl ester] displayed an IC50 greater than 50 µM.

In turn, `CCOC(=O)Cc1nnc(NC(=O)C(CC)Sc2nnc3c4ccccc4n(C)c3n2)s1` (stereo not given) [2-[5-[2-[(5-methyl-[1,2,4]triazin[5,6-b]indol-3-yl)thio]butanoylamino]-1,3,4-thiadiazol-2-yl]acetic acid ethyl ester] came in with an IC50 greater than 50 µM.

Molecule `O=C(NCc1ccco1)c1cccc(S(=O)(=O)N2CCCCC2)c1` [MLS000065416] registered a half-inhibitory concentration (IC50) greater than 50 µM.

`Cc1nn(C(=O)c2ccccc2)c2c1C(=O)CC(C)(C)C2` [SMR000069174] yielded a half-maximal inhibitory concentration (IC50) of 5.35 µM.

Regarding `O=C(Nc1cccc(F)c1)c1c(F)c(F)c(F)c(F)c1F` [2,3,4,5,6-pentafluoro-N-(3-fluorophenyl)benzamide], the IC50 is greater than 50 µM.

Molecule `CC(=O)c1c(OC(=O)c2ccco2)c2ccccc2n1C` [SMR000109417] registered an IC50 of 25.9 µM.

`Cc1nc2scc(-c3cccs3)c2c(=O)o1` [2-methyl-5-(2-thienyl)thieno[2,3-d][1,3]oxazin-4-one]: the IC50 is greater than 50 µM.

In turn, `O=C(c1ccc2c(c1)OCO2)n1nnc2ccccc21` gave an IC50 of 0.85 µM.

For `O=C(Nc1nccs1)c1cccc(S(=O)(=O)N2CCCCC2)c1` [3-(1-piperidinylsulfonyl)-N-(2-thiazolyl)benzamide], the 50% inhibitory concentration (IC50) was greater than 50 µM.

On to `COc1ccc(Nc2cc(C)nc3nc(C)nn23)c(OC)c1` [(2,4-dimethoxyphenyl)-(2,5-dimethyl-[1,2,4]triazolo[1,5-a]pyrimidin-7-yl)amine], for which the IC50 was greater than 50 µM.

For `COc1ccc2c(c1)CCc1c(C(=O)NCc3ccc(F)cc3)noc1-2` [MLS000116425], the concentration for half-maximal inhibition (IC50) was greater than 50 µM.

Consider `c1cncc(-c2nnc3n2N=C(c2cccs2)CS3)c1` [3-pyridin-3-yl-6-thiophen-2-yl-7H-[1,2,4]triazolo[3,4-b][1,3,4]thiadiazine], for which the IC50 is greater than 50 µM.

On to `CC(C)(C)NC(=O)C(c1ccco1)N(Cc1ccc2c(c1)OCO2)C(=O)Cn1nnc2ccccc21` (stereo not given) [2-[1,3-benzodioxol-5-ylmethyl-[2-(1-benzotriazolyl)-1-oxoethyl]amino]-N-tert-butyl-2-(2-furanyl)acetamide], for which the IC50 was greater than 50 µM.

For the molecule `CCc1cc(=O)oc2cc(C)cc(OC(=O)c3ccco3)c12` [MLS000099547], half-maximal inhibition (IC50) required 10.1 µM.

As to `COc1ccc(NC(=O)C2CCC(=O)N2S(=O)(=O)c2ccc(C)cc2)c(OC)c1` (stereo not given) [MLS000050140], the concentration for half-maximal inhibition (IC50) was greater than 50 µM.

Turning to `Cc1cc(OC(=O)c2ccccc2)n(CCC#N)n1` [[2-(2-cyanoethyl)-5-methyl-pyrazol-3-yl] benzoate], half-maximal inhibition (IC50) required 2.14 µM.

In the case of `COc1cc(C)nc(NS(=O)(=O)c2ccccc2)n1` [MLS000100375], the half-maximal inhibitory concentration (IC50) was greater than 50 µM.

`O=C(Cn1c(=O)oc2cc(S(=O)(=O)N3CCc4ccccc43)ccc21)N1CCCCC1` [6-(2,3-dihydroindol-1-ylsulfonyl)-3-(2-oxidanylidene-2-piperidin-1-yl-ethyl)-1,3-benzoxazol-2-one]: the IC50 was greater than 50 µM.

Molecule `Cc1ccc(-n2c(SCC(=O)N3CCCC3)nc3c(c2=O)SCC3)cc1` [2-[(2-keto-2-pyrrolidino-ethyl)thio]-3-(p-tolyl)-6,7-dihydrothieno[3,2-d]pyrimidin-4-one] showed a concentration for half-maximal inhibition (IC50) greater than 50 µM.

Take `CN(CCNC(=O)Cn1c(=O)sc2ccccc21)Cc1ccccc1` [MLS000116175]: the IC50 is greater than 50 µM.

In the case of `CCOc1ccc(C2CC(c3cccc(Cl)c3)n3nc(N)nc3N2)cc1` (stereo not given) [7-(3-chlorophenyl)-5-(4-ethoxyphenyl)-1,5,6,7-tetrahydro-[1,2,4]triazolo[1,5-a]pyrimidin-2-amine], the half-inhibitory concentration (IC50) was greater than 50 µM.

Turning to `CCOC(=O)C1CCN(C(=O)c2cc(OCC)c(OCC)c(OCC)c2)CC1` [1-(3,4,5-triethoxybenzoyl)isonipecotic acid ethyl ester], the half-inhibitory concentration (IC50) is greater than 50 µM.

`CSc1nc(-c2ccco2)nn1C(=O)c1ccc(C)cc1` [[3-(furan-2-yl)-5-methylsulfanyl-1,2,4-triazol-1-yl]-(4-methylphenyl)methanone] gave an IC50 of 0.9 µM.

On to `CCCN(c1nc(C)cc(OC)n1)S(=O)(=O)c1ccccc1` [MLS000087928], for which the IC50 was greater than 50 µM.

Take `O=C(Nc1nc(-c2cccs2)cs1)c1cccc(S(=O)(=O)N2CCCCCC2)c1` [3-(1-azepanylsulfonyl)-N-(4-thiophen-2-yl-2-thiazolyl)benzamide]: the IC50 was greater than 50 µM.
